Test results published in patent US12661338B2, “Heterocyclic compounds as modulators of beta-catenin / TCF4 interaction” (AGENCY FOR SCIENCE, TECHNOLOGY AND RESEARCH, priority 2019, dated 2026).
Read-outs that look alike come from different tables or passages of the source.

What was measured:
Assay type in all cases: cell-based
[1] = tested on: Wnt signalling (TOPFlash reporter, STF cells); test: Wnt STF TOPFlash reporter dose response (Wnt3A-stimulated)
Experimental: (§1) Wnt STF reporter cells (HEK 293 cells stably transfected with TOPFlash reporter) and STF3A reporter cells (STF cells with constitutive secretion of Wnt3A) were kind gifts from David Virshup (Duke-NUS Graduate Medical School, Singapore). HCT116, DLD-1, and SW480 cell lines were obtained from ATCC. The Hippo pathway TEAD reporter (cat. #60618) and Myc signalling pathway reporter (cat. #60520) cells lines were purchased from BPS Bioscience, Inc.
(§2) The Wnt STF reporter cells were seeded as 20,000 cells in 100 μL culture medium per well in 96-well plates (Corning cat. #3903, Falcon cat. #353072). The next day, 5-fold dilutions of the compounds in DMSO were added to the cells at a final concentration of 1% DMSO. The cells were also stimulated with 500 ng/mL recombinant human Wnt3A (RnD systems, cat. #5036-WN-010). After 24 hr incubation, the viability of the cells was determined with cell counting kit-8 (CCK-8, Dojindo cat. #CK04) cell viability reagent according to the manufacturer's protocol while the TOPFlash reporter activity was determined with Steady-Glo luciferase reagent.
(§3) The average signal from DMSO treated wells was calculated for each plate, and the signal from each treatment well was normalized against the average DMSO signal from the respective plate. The normalized values were plotted against the concentrations tested using GraphPad Prism 5, and the EC50 values were determined through either three- or four-parameter nonlinear regression.

[2] = tested on: Wnt signalling (TOPFlash reporter, STF3A cells); test: Wnt STF3A TOPFlash reporter dose response (constitutive Wnt3A)
Experimental: as §1
as §2, with “STF3A” for “STF”, “DMSO.” for “DMSO. The cells were also stimulated with 500 ng/mL recombinant human Wnt3A (RnD systems, cat. #5036-WN-010).”
as §3

[3] = tested on: STF cells; test: Viability (toxicity) of STF reporter cells, CCK-8; conditions: Table 3; STF reporter cell line
Experimental: as §2, §3

[4] = tested on: STF3A cells; test: Viability (toxicity) of STF3A reporter cells, CCK-8; conditions: Table 3; STF3A reporter cell line
Experimental: as §2, with “STF3A” for “STF”, “DMSO.” for “DMSO. The cells were also stimulated with 500 ng/mL recombinant human Wnt3A (RnD systems, cat. #5036-WN-010).”
as §3

[5] = tested on: Wnt target genes in HCT116 CRC cells; test: Expression of beta-catenin (CTNNB1) and Wnt target genes in HCT116 CRC cells
Experimental: The effects of the GB1874 analogues were tested on the expression of Wnt target genes in HCT116 CRC cells.

[6] = tested on: Myc reporter (Luc)-HCT116 cells; test: Myc signalling reporter dose response; conditions: Homo sapiens, HCT-116, 24 hr
Experimental: (§4) The Myc reporter (Luc)-HCT116 cells were seeded as 25,000 cells in 100 μL assay medium per well in 96-well plates (Corning cat. #3903, Falcon cat. #353072). The assay medium consists of the growth medium without G-418. The next day, 4-fold dilutions of the compounds in DMSO were added to the cells at a final concentration of 1% DMSO. After 24 hr incubation, the viability of the cells was determined with PrestoBlue cell viability reagent while the luciferase reporter activity was determined with Steady-Glo luciferase reagent.
as §3

[7] = tested on: Hippo pathway TEAD reporter cells; test: Hippo signalling TEAD reporter dose response; conditions: 24 hr, activation of the Hippo pathway (decrease of reporter signal)
Experimental: as §4, with “Hippo TEAD” for “Myc”, “reporter” for “reporter (Luc)-HCT116”, “100,000” for “25,000”, “5-fold” for “4-fold”, “CCK-8” for “PrestoBlue”
as §3

[8] = tested on: DLD-1 cells; test: Dose response viability of CRC cells (CellTiter-Glo); conditions: Homo sapiens, 24 hr
Experimental: (§5) HCT116, DLD-1, and SW480 cells were seeded as 5,000 cells in 100 μL growth medium per well in 96-well plates (Corning cat. #3903). The next day, 5-fold dilutions of the compounds in DMSO were added to the cells at a final concentration of 1% DMSO. After 24 hr incubation, the viability of the cells was determined with CellTiter-Glo luminescent cell viability reagent (Promega cat. #G7573) according to the manufacturer's protocol.
as §3

[9] = tested on: HCT116 cells; test: as above; conditions: Homo sapiens, HCT-116, 24 hr
Experimental: as §5, §3

[10] = tested on: SW480 cells; test: as above; conditions: Homo sapiens, 24 hr
Experimental: as §5, §3

[11] = tested on: HCT116 cells; test: Proliferation assay (CellTiter-Glo); conditions: 10 μM daily
Experimental: HCT 116 cells were seeded as 3,000 cells in 100 μL growth medium per well in 96-well plates (Corning cat. #3903) and allowed to attached overnight. Cells were then treated continuously with compounds at a final concentration of 10 μM, 0.1% DMSO, for 4 days with daily medium change. Cell proliferation each day was determined using CellTiter-Glo luminescent cell viability assay (Promega cat. #G7573) according to the manufacturer's protocol.

[12] = tested on: CRC948; test: Viability of primary patient-derived colorectal cancer cell line
[13] = tested on: CRC1177; test: as above
[14] = tested on: CRC1258; test: as above; conditions: CRC1258, Liver Met
[15] = tested on: CRC1414; test: as above
[16] = tested on: CRC1463; test: as above
[17] = tested on: CRC1489; test: as above
[18] = tested on: CRC1671; test: as above
[19] = tested on: CRC1707; test: as above
[20] = tested on: CRC1775; test: as above
[21] = tested on: CRC1837; test: as above; conditions: CRC1837, Liver Met
[22] = tested on: CRC1846; test: as above
[23] = tested on: CRC1850; test: as above; conditions: CRC1850, Liver Met
[24] = tested on: CRC2001; test: as above
[25] = tested on: CRC2255; test: as above
[26] = tested on: CRC2367; test: as above
[27] = tested on: CRC2413; test: as above
[28] = tested on: CRC2423; test: as above
[29] = tested on: CRC2440; test: as above
[30] = Table 3, STF reporter cell line, read-out: STF Inhibition IC50
[31] = Table 3, STF3A reporter cell line, read-out: STF3A Inhibition IC50

| Structure (SMILES) | IC50 [1, 30] | IC50 [2, 31] | IC50 [3] | IC50 [4] | beta-catenin (CTNNB1) gene expression [5] | expression of Wnt target genes AXIN2, BIRC5, BMP4, CCND1 [5] | also measured |
| --- | --- | --- | --- | --- | --- | --- | --- |
| CCc1ccc(-c2nc(CSCC(=O)NCCc3ccccc3)c(C)o2)cc1 [iCRT3, reference compound] | 11 µM | 42 µM | 88 µM | 74 µM | lesser effect | potently inhibit Wnt target genes | IC50 ([1]; Table 1, STF reporter cells, 500 ng/mL Wnt3A, 24 hr, read-out: IC50 Wnt (STF)): 27 µM; IC50 ([2]; Table 1, STF3A reporter cells, 24 hr, read-out: IC50 Wnt (STF3A)): 64 µM; IC50 [6]: 50 µM; IC50 Hippo (activation) [7]: activated; IC50 ([7]; read-out: IC50 Hippo (activation)): 1.6 µM; EC50 [8]: 48 µM; EC50 [9]: 39 µM; EC50 [10]: 64 µM |
| CC1CCCC(C)N1C(=O)CSc1nnc(COc2ccccc2)n1Cc1ccccc1 (stereo not drawn) [GB1874C] | 7.6 µM | 46 µM | 76 µM | 78 µM | lesser effect | potently inhibit Wnt target genes |  |
| Cc1ccc2nc(NC(=O)CSc3nc4c(c(=O)n3-c3ccccc3)SCC4)sc2c1 [IWP-2] |  |  |  |  |  |  | growth of HCT116 cells [11]: less effective at inhibiting the growth of HCT116 cells |
| CCOc1ccc(C(=O)CSc2nnc(COc3ccccc3)n2Cc2ccccc2)cc1 [GB1874D] | 21 µM | 21 µM | > 100 µM | 25 µM |  |  |  |
| CCOC(=O)C(C)(C)Sc1nnc(COc2ccccc2)n1Cc1ccccc1 [GB1874E] | 12 µM | 16 µM | 71 µM | 100 µM | lesser effect | potently inhibit Wnt target genes |  |
| Oc1nc(-c2ccc(C(F)(F)F)cc2)nc2c1CSCC2 [XAV939, reference compound] |  |  |  |  |  |  | growth of HCT116 cells [11]: less effective at inhibiting the growth of HCT116 cells; EC50 [12]: > 250 µM; EC50 [13]: 250 µM; EC50 [14]: 70 µM; EC50 [15]: > 250 µM; EC50 [16]: 250 µM; EC50 [17]: 105 µM; EC50 [18]: > 250 µM; EC50 [19]: 135 µM; EC50 [20]: > 250 µM; EC50 [21]: > 250 µM; EC50 [22]: 239 µM; EC50 [23]: 208 µM; EC50 [24]: > 250 µM; EC50 [25]: > 250 µM; EC50 [26]: > 250 µM; EC50 [27]: 200 µM; EC50 [28]: 250 µM; EC50 [29]: 75 µM |

Now from value to compound, other results behind:

| IC50 [1, 30] | IC50 [2, 31] | Structure (SMILES) | IC50 [3] | IC50 [4] | beta-catenin (CTNNB1) gene expression [5] | expression of Wnt target genes AXIN2, BIRC5, BMP4, CCND1 [5] | also measured |
| --- | --- | --- | --- | --- | --- | --- | --- |
| 5.4 µM | 10 µM | Cc1ccc(OCc2nnc(SCC(=O)c3ccc(-c4ccccc4)cc3)n2Cc2ccco2)cc1 [GB1874F] | 100 µM | > 100 µM | lesser effect | potently inhibit Wnt target genes | IC50 ([1]; unit M, read-out: STF IC50): 5.4 µM |
| 5 µM | 11 µM | CCc1ccc(OCc2nnc(SC3CCCCC3=O)n2C(C)c2ccccc2)cc1 (stereo not drawn) [GB1874H] | 49 µM | 46 µM | lesser effect | potently inhibit Wnt target genes |  |
| 3.9 µM | 6.7 µM | CCc1ccc(OCc2nnc(SC(C)C(=O)C3C4CC5CC(C4)CC3C5)n2Cc2ccccc2)cc1 (stereo not drawn) [GB1874G] | > 100 µM | > 100 µM | lesser effect | potently inhibit Wnt target genes | IC50 ([1]; unit M, read-out: STF IC50): 3.9 µM |
| 28 µM | 1.2 µM | Cc1ccccc1OCc1nnc(SCCSc2nnc(COc3ccccc3C)n2Cc2ccccc2)n1Cc1ccccc1 [GB1874A] | > 100 µM | > 100 µM |  |  |  |
| 48 µM | > 100 µM | O=C(CSc1nnc(Cc2ccccc2)n1Cc1ccco1)NC1CCCC1 [GB1874B] | > 100 µM | > 100 µM |  |  |  |
